From patent US20240174696A1, “2,8-DIAZASPIRO[4.5]DECANE COMPOUNDS” (Genentech, Inc., priority 2021, published 2024)

Experiments:
[1] = target: Human LATS2 catalytic domain (Homo sapiens (Human), UniProt Q9NRM7); assay: LATS2 High ATP HTRF Assay; format: biochemical; details: no asterisk: LATS2 High ATP HTRF Assay, 5000 μM ATP, 0.05 nM LATS2
Method in brief: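 Phosphorylation of 0.5 μM STK S1 peptide at high ATP (5000 μM), 2 h at room temperature, by 0.05 nM LATS2 kinase domain/Mob1b complex after 10 min compound pre-incubation. Ki derived from HTRF-based IC50 (4-parameter logistic) by Cheng-Prusoff, ATP Km 105 μM.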

[2] = test system: TAZ nuclear translocation in SW1990 cells; assay: TAZ Nuclear Translocation Assay; format: cell-based; details: Homo sapiens, 4 hours
Method in brief: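 SW1990 cells in RPMI1640/10% FBS treated with compounds for 4 h at 37 °C, then fixed and immunostained for TAZ with Hoechst nuclear counterstain and imaged by high-content imaging. Read-out is the nuclear/cytoplasmic-ring fluorescence ratio, normalized to DMSO (0%) and an inhibitor control (100%); EC50 from four-parameter fit.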

Chain of Human LATS2 catalytic domain (Q9NRM7 553-1088): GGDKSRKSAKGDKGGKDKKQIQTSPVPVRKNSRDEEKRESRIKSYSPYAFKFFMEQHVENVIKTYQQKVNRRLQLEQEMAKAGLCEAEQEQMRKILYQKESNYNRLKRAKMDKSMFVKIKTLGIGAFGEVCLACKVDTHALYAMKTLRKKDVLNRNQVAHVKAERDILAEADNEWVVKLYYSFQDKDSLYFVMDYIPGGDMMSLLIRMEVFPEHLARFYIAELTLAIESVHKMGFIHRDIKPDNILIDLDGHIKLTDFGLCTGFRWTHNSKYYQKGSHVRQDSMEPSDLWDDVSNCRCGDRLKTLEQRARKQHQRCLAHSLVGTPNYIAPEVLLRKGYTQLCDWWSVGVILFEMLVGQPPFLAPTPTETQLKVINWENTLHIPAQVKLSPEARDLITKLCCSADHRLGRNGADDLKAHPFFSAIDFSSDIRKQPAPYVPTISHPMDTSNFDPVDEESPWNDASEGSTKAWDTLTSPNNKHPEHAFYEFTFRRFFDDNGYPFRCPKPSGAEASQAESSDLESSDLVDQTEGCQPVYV
Chain of Human LATS2 catalytic domain (Q7L9L4 whole entry partner, the tested form may be a part): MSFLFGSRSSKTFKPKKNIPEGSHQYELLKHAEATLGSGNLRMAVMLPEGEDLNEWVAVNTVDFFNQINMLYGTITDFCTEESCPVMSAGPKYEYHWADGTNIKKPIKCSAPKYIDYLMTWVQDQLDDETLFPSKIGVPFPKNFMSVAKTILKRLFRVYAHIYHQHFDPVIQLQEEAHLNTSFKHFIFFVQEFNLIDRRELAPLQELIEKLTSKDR

C=CCOc1cncc2nc(-c3ccncc3)nc(N3CCC4(CCNC4)CC3)c12 [Compound 254, 5-(allyloxy)-2-(pyridin-4-yl)-4-(2,8-diazaspiro[4.5]decan-8-yl)pyrido[3,4-d]pyrimidine]
Ki [1]: 0.018 nM | EC50 [2]: 100 nM

COc1cncc2nc(-c3ccncc3)nc(N3CCC4(CCN(CC5COC5)C4)CC3)c12 [Compound 255, 5-Methoxy-4-(2-(oxetan-3-ylmethyl)-2,8-diazaspiro[4.5]decan-8-yl)-2-(pyridin-4-yl)pyrido[3,4-d]pyrimidine]
Ki [1]: 0.034 nM | EC50 [2]: 140 nM

C#CCCN1CCC2(CCN(c3nc(-c4ccncc4)nc4cnccc34)CC2)C1 [Compound 256, 4-(2-(but-3-yn-1-yl)-2,8-diazaspiro[4.5]decan-8-yl)-2-(pyridin-4-yl)pyrido[3,4-d]pyrimidine]
Ki [1]: 0.19 nM | EC50 [2]: 470 nM

COc1[nH]ncc1-c1nc(N2CCC3(CCNC3)CC2)c2ccncc2n1 [Compound 257, 2-(5-methoxy-1H-pyrazol-4-yl)-4-(2,8-diazaspiro[4.5]decan-8-yl)pyrido[3,4-d]pyrimidine]
Ki [1]: 8 nM | EC50 [2]: > 10000 nM

CN(C)c1cncc2nc(-c3ccncc3)nc(N3CCC4(CCNC4)CC3)c12 [Compound 258, N,N-Dimethyl-2-(pyridin-4-yl)-4-(2,8-diazaspiro[4.5]decan-8-yl)pyrido[3,4-d]pyrimidin-5-amine]
Ki [1]: 1.8 nM | EC50 [2]: 1900 nM

CN1CCC2(CCN(c3nc(-c4ccncc4)nc4cncc(O)c34)CC2)C1 [Compound 259, 4-(2-methyl-2,8-diazaspiro[4.5]decan-8-yl)-2-(pyridin-4-yl)pyrido[3,4-d]pyrimidin-5-ol]
Ki [1]: 1.6 nM | EC50 [2]: > 10000 nM

c1cc(-c2nc(N3CCC4(CCNC4)CC3)c3c(OC4COC4)cncc3n2)ccn1 [Compound 260, 5-(Oxetan-3-yloxy)-2-(pyridin-4-yl)-4-(2,8-diazaspiro[4.5]decan-8-yl)pyrido[3,4-d]pyrimidine]
Ki [1]: 0.055 nM | EC50 [2]: 4000 nM

C#CCN1CCC2(CCN(c3nc(-c4ccncc4)nc4cnccc34)CC2)C1 [Compound 261, 4-(2-(prop-2-yn-1-yl)-2,8-diazaspiro[4.5]decan-8-yl)-2-(pyridin-4-yl)pyrido[3,4-d]pyrimidine]
Ki [1]: 0.1 nM | EC50 [2]: 580 nM

Cc1[nH]ncc1-c1nc(N2CCC3(CCN(C)C3)CC2)c2ccnc(Cl)c2n1 [Compound 262, 8-chloro-2-(5-methyl-1H-pyrazol-4-yl)-4-(2-methyl-2,8-diazaspiro[4.5]decan-8-yl)pyrido[3,4-d]pyrimidine]
Ki [1]: 0.028 nM | EC50 [2]: 250 nM

COCCOc1cncc2nc(-c3ccncc3)nc(N3CCC4(CCNC4)CC3)c12 [Compound 263, 5-(2-methoxyethoxy)-2-(pyridin-4-yl)-4-(2,8-diazaspiro[4.5]decan-8-yl)pyrido[3,4-d]pyrimidine]
Ki [1]: 0.11 nM | EC50 [2]: 1200 nM

COc1cncc2nc(-c3c[nH]nc3C)nc(N3CCC4(CCN(C)C4)CC3)c12 [Compound 264, 5-methoxy-2-(3-methyl-1H-pyrazol-4-yl)-4-(2-methyl-2,8-diazaspiro[4.5]decan-8-yl)pyrido[3,4-d]pyrimidine]
Ki [1]: 0.026 nM | EC50 [2]: 170 nM

COc1cncc2nc(-c3c[nH]nc3C)nc(N3CCC4(CCN(CC(C)(C)O)C4)CC3)c12 [Compound 265, 1-(8-(5-methoxy-2-(3-methyl-1H-pyrazol-4-yl)pyrido[3,4-d]pyrimidin-4-yl)-2,8-diazaspiro[4.5]decan-2-yl)-2-methylpropan-2-ol]
Ki [1]: 0.047 nM | EC50 [2]: 240 nM

CN1CCC2(CCN(c3nc(-c4ccncc4)nc4c(Cl)nccc34)CC2)C1 [Compound 266, 8-chloro-4-(2-methyl-2,8-diazaspiro[4.5]decan-8-yl)-2-(pyridin-4-yl)pyrido[3,4-d]pyrimidine]
Ki [1]: 0.37 nM | EC50 [2]: 1100 nM

FCOc1cncc2nc(-c3ccncc3)nc(N3CCC4(CCNC4)CC3)c12 [Compound 267, 5-(fluoromethoxy)-2-(pyridin-4-yl)-4-(2,8-diazaspiro[4.5]decan-8-yl)pyrido[3,4-d]pyrimidine]
Ki [1]: 0.028 nM | EC50 [2]: 360 nM

CC(C)(O)CN1CCC2(CCN(c3nc(-c4ccncc4)nc4cncc(OC5COC5)c34)CC2)C1 [Compound 268, 2-Methyl-1-(8-(5-(oxetan-3-yloxy)-2-(pyridin-4-yl)pyrido[3,4-d]pyrimidin-4-yl)-2,8-diazaspiro[4.5]decan-2-yl)propan-2-o0]
Ki [1]: 0.034 nM | EC50 [2]: 130 nM

CN1CCC2(CCN(c3nc(-c4ccncc4)nc4cncc(OC5COC5)c34)CC2)C1 [Compound 269, 4-(2-Methyl-2,8-diazaspiro[4.5]decan-8-yl)-5-(oxetan-3-yloxy)-2-(pyridin-4-yl)pyrido[3,4-d]pyrimidine]
Ki [1]: 0.034 nM | EC50 [2]: 210 nM

CN1CCC2(CCN(c3nc(-c4ccncc4)nc4cncc(OCC5COC5)c34)CC2)C1 [Compound 270, 4-(2-Methyl-2,8-diazaspiro[4.5]decan-8-yl)-5-(oxetan-3-ylmethoxy)-2-(pyridin-4-yl)pyrido[3,4-d]pyrimidine]
Ki [1]: 0.15 nM | EC50 [2]: 860 nM

C#CC(C)(O)CN1CCC2(CCN(c3nc(-c4ccncc4)nc4cnccc34)CC2)C1 (stereo not shown) [Compound 271, 2-methyl-1-(8-(2-(pyridin-4-yl)pyrido[3,4-d]pyrimidin-4-yl)-2,8-diazaspiro[4.5]decan-2-yl)but-3-yn-2-ol]
Ki [1]: 0.041 nM | EC50 [2]: 330 nM

Clc1nccc2c(N3CCC4(CCNC4)CC3)nc(-c3ccncc3)nc12 [Compound 272, 8-chloro-2-(pyridin-4-yl)-4-(2,8-diazaspiro[4.5]decan-8-yl)pyrido[3,4-d]pyrimidine trifluoro acetate]
Ki [1]: 0.31 nM | EC50 [2]: 1100 nM

COc1cncc2nc(-c3c[nH]nc3C)nc(N3CCC4(CCN(CC5COC5)C4)CC3)c12 [Compound 273, 5-methoxy-2-(3-methyl-1H-pyrazol-4-yl)-4-(2-(oxetan-3-ylmethyl)-2,8-diazaspiro[4.5]decan-8-yl)pyrido[3,4-d]pyrimidine]
Ki [1]: 0.043 nM | EC50 [2]: 260 nM

FC(F)Oc1cncc2nc(-c3ccncc3)nc(N3CCC4(CCNC4)CC3)c12 [Compound 274, 5-(difluoromethoxy)-2-(pyridin-4-yl)-4-(2,8-diazaspiro[4.5]decan-8-yl)pyrido[3,4-d]pyrimidine]
Ki [1]: 0.02 nM | EC50 [2]: 180 nM

COc1cnc(Cl)c2nc(-c3ccncc3)nc(N3CCC4(CCN(C)C4)CC3)c12 [Compound 275, 8-chloro-5-methoxy-4-(2-methyl-2,8-diazaspiro[4.5]decan-8-yl)-2-(pyridin-4-yl)pyrido[3,4-d]pyrimidine]
Ki [1]: 0.02 nM | EC50 [2]: 310 nM

COCC1CC2(CCN(c3nc(-c4ccncc4)nc4cncc(OC)c34)CC2)CN1 (stereo not shown) [Compound 276, 5-methoxy-4-(3-(methoxymethyl)-2,8-diazaspiro[4.5]decan-8-yl)-2-(pyridin-4-yl)pyrido[3,4-d]pyrimidine]
Ki [1]: 0.19 nM | EC50 [2]: 410 nM

CN1CCC2(CCN(c3nc(-c4ccncc4)nc4cncc(OC5CC(C#N)C5)c34)CC2)C1 (stereo not shown) [Compound 277, 3-((4-(2-Methyl-2,8-diazaspiro[4.5]decan-8-yl)-2-(pyridin-4-yl)pyrido[3,4-d]pyrimidin-5-yl)oxy)cyclobutane-1-carbonitrile]
Ki [1]: 0.11 nM | EC50 [2]: 290 nM

COc1cncc2nc(-c3ccncc3)nc(N3CCC4(CCNC4=O)CC3)c12 [Compound 279, 8-(5-methoxy-2-(pyridin-4-yl)pyrido[3,4-d]pyrimidin-4-yl)-2,8-diazaspiro[4.5]decan-1-one]
Ki [1]: 4.5 nM | EC50 [2]: 5300 nM

COc1cncc2nc(-c3ccncc3)nc(N3CCC4(CCN(CC(F)F)C4)CC3)c12 [Compound 280, 4-(2-(2,2-difluoroethyl)-2,8-diazaspiro[4.5]decan-8-yl)-5-methoxy-2-(pyridin-4-yl)pyrido[3,4-d]pyrimidine]
Ki [1]: 0.039 nM | EC50 [2]: 570 nM

c1cc(-c2cc3cnccc3c(N3CCC4(CCNC4)CC3)n2)ccn1 [Example 199, 3-(Pyridin-4-yl)-1-(2,8-diazaspiro[4.5]decan-8-yl)-2,6-naphthyridine]
Ki [1]: 3.3 nM | EC50 [2]: 6100 nM

CCc1cncc2nc(-c3ccncc3)nc(N3CCC4(CCNC4)CC3)c12 [Example 204, 5-Ethyl-2-(pyridin-4-yl)-4-(2,8-diazaspiro[4.5]decan-8-yl)pyrido[3,4-d]pyrimidine]
Ki [1]: 1.1 nM | EC50 [2]: 1000 nM

OC1(CN2CCC3(CCN(c4nc(-c5ccncc5)nc5cnccc45)CC3)C2)CCC1 [Example 205, 1-((8-(2-(Pyridin-4-yl)pyrido[3,4-d]pyrimidin-4-yl)-2,8-diazaspiro[4.5]decan-2-yl)methyl)cyclobutan-1-ol]
Ki [1]: 0.23 nM | EC50 [2]: 170 nM

OCC1CC2(CCN(c3nc(-c4ccncc4)nc4cnccc34)CC2)CN1C1CCCC1 (stereo not shown) [Example 206, (2-cyclopentyl-8-(2-(pyridin-4-yl)pyrido[3,4-d]pyrimidin-4-yl)-2,8-diazaspiro[4.5]decan-3-yl)methanol]
Ki [1]: 0.1 nM | EC50 [2]: 170 nM

OC1(CN2CCC3(CCN(c4nc(-c5ccncc5)nc5cnccc45)CC3)C2)COC1 [Example 211, 3-((8-(2-(Pyridin-4-yl)pyrido[3,4-d]pyrimidin-4-yl)-2,8-diazaspiro[4.5]decan-2-yl)methyl)oxetan-3-ol]
Ki [1]: 0.11 nM | EC50 [2]: 420 nM

FC(F)c1[nH]ncc1-c1nc(N2CCC3(CCNC3)CC2)c2ccncc2n1 [Example 213, 2-(5-(difluoromethyl)-1H-pyrazol-4-yl)-4-(2,8-diazaspiro[4.5]decan-8-yl)pyrido[3,4-d]pyrimidine]
Ki [1]: 0.6 nM | EC50 [2]: > 10000 nM
